Counter-ions that a name gives are not always drawn. Like-named read-outs stand apart in the source and are kept apart here.

The source of these data is patent US7012089B2, “[1,4]Diazocino[7,8,1-hi]indole derivatives as antipsychotic and antiobesity agents” (Wyeth, priority 2002, dated 2006).

Series [1] has as its target T1, human 5-hydroxytryptamine-2C (h-5-HT2C) receptor (Homo sapiens, UniProt P28335).
T1 sequence (P28335 33-458): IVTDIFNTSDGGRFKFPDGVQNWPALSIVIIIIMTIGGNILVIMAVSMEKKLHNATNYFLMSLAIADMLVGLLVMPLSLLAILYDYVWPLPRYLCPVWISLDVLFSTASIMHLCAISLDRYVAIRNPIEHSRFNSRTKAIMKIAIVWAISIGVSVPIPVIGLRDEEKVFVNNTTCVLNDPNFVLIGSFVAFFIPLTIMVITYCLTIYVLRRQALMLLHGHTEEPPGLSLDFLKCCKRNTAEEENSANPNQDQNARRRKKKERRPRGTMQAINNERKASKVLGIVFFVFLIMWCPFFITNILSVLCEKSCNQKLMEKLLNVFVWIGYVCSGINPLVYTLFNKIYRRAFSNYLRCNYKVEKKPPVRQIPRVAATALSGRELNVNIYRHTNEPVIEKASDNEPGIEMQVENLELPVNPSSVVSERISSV
Put plainly: [125I]DOI binding to membranes of CHO cells expressing the h-5-HT2C receptor. The note with it: 5-HT2c Affinity KI (nM), displacement of [125I]DOI, CHO cell membranes. In general terms: Loss of bound radioactivity is the signal in a displacement assay; it reports binding, not function.

The target of series [2] is T2, human 5-HT2C receptor (Homo sapiens, UniProt P28335).
T2 sequence (P28335 33-458): T1 sequence (P28335 33-458)
Kind of series: 5-HT2C receptor-stimulated calcium mobilization (FLIPR) in CHO cells. The format is cell-based. The note with it: for Emax: CHO, read-out: 5-HT2C Function Emax (%).

Where [3] appears, read: calcium mobilization, CHO cells stably expressing human 5-HT2C, read-out: 5-HT2C Function EC50.

Take `c1cc2c3c(c1)c1c(n3CCNCC2)CCC1` (as salt: fumarate) [Example 2, 2,3,4,5,10,11-Hexahydro-1H,9H-cyclopenta[b][1,4]diazocino[7,8,1-hi]indole]: the melting point lay in the range of 180 to 183 °C.
Regarding `CN1CCc2cccc3c2N(CC1)C1CCCC31` (centres unmarked) (as salt: fumarate) [Example 3, 3-Methyl-2,3,4,5,9,10,11,11a-octahydro-1H,8bH-cyclopenta[b][1,4]diazocino[7,8,1-hi]indole], the melting point was 159 to 161 °C.
Same read-out and setting: under `c1cc2c3c(c1)c1c(n3CCNCC2)CCCC1` (as salt: fumarate) [Example 6, 2,3,4,5,9,10,11,12-Octahydro-1H-[1,4]diazocino[7,8,1-jk]carbazole] stands 174 to 176 °C; under `CN1CCc2cccc3c2N(CC1)C1CCCCC31` (centres unmarked) (as salt: fumarate) [Example 7, 3-Methyl-2,3,4,5,8b,9,10,11,12,12a-decahydro-1H-[1,4]diazocino[7,8,1-jk]carbazole], 150 to 153 °C.
Still for that read-out and setting: under `c1cc2c3c(c1)C1CCCCC1N3CCNCC2` (centres unmarked) (as salt: fumarate) [Example 8, 2,3,4,5,8b,9,10,11,12,12a-Decahydro-1H-[1,4]diazocino[7,8,1-jk]carbazole] stands 169 to 171 °C; under `CN1CCc2cccc3c4c(n(c23)CC1)CCCCC4` (as salt: fumarate) [Example 9, 3-Methyl-2,3,4,5,10,11,12,13-octahydro-1H,9H-cyclohepta[b][1,4]diazocino[7,8,1-hi]indole], 190 to 192 °C; under `c1cc2c3c(c1)c1c(n3CCNCC2)CCCCC1` (as salt: fumarate) [Example 10, 2,3,4,5,10,11,12,13-Octahydro-1H,9H-cyclohepta[b]1,4]diazocino[7,8,1-hi]indole], 216 to 218 °C.
`CN1CCc2c(Cl)ccc3c2N(CC1)C1CCCC31` (centres unmarked) (as salt: fumarate) [Example 15, 6-Chloro-3-Methyl-2,3,4,5,9,10,11,11a-octahydro-1H,8bH-cyclopenta[b][1,4]diazocino[7,8,1-hi]indole] had a melting point of 196 to 199 °C.
`CN1CCc2c(Cl)ccc3c2N(CC1)C1CCCCCC31` (centres unmarked) (as salt: fumarate) [Example 16, 6-Chloro-3-methyl-2,3,4,5,9,10,11,12,13,13a-decahydro-1H,8bH-cyclohepta[b][1,4]diazocino[7,8,1-hi]indole]: the melting point lay in the range of 190 to 193 °C.
In turn, `Clc1ccc2c3c(n4c2c1CCNCC4)CCC3` (as salt: fumarate) [Example 17, 6-Chloro-2,3,4,5,10,11-hexahydro-1H,9H-cyclopenta[b][1,4]diazocino[7,8,1-hi]indole] had a melting point of 188 to 190 °C.
Take `Clc1ccc2c3c(n4c2c1CCNCC4)CCCC3` (as salt: fumarate) [Example 18, 6-Chloro-2,3,4,5,9,10,11,12-octahydro-1H-[1,4]diazocino[7,8,1-jk]carbazole]: the melting point was in the range of 208 to 210 °C.
Still for that read-out and setting: under `Clc1ccc2c3c(n4c2c1CCNCC4)CCCCC3` (as salt: fumarate) [Example 19, 6-Chloro-2,3,4,5,10,11,12,13-octahydro-1H,9H-cyclohepta[b][1,4]diazocino[7,8,1-hi]indole] stands 208 to 210 °C.
For `Clc1ccc2c3c1CCNCCN3C1CCCC21` (centres unmarked) (as salt: fumarate) [Example 20, 6-Chloro-2,3,4,5,9,10,11,11a-octahydro-1H,8bH-cyclopenta[b][1,4]diazocino[7,8,1-hi]indole], the melting point was 188 to 189 °C.
In turn, `CCN1CCc2c(Cl)ccc3c2N(CC1)C1CCCC31` (centres unmarked) (as salt: fumarate) [Example 21, 6-Chloro-3-ethyl-2,3,4,5,9,10,11,11a-octahydro-1H,8bH-cyclopenta[b][1,4]diazocino[7,8,1-hi]indole] gave a melting point of 199 to 201 °C.
With `Fc1ccc2c3c1c1c(n3CCNCC2)CCCC1` [Example 29, 8-Fluoro-2,3,4,5,9,10,11,12-octahydro-1H-[1,4]diazocino[7,8,1-jk]carbazole], in series [1], the Ki came out at 1 nM. In addition, in series [2], the EC50 was 0.008 µM and the Emax is 90%.
On the same counts, the results for `Fc1ccc2c3c1C1CCCC1N3CCNCC2` (centres unmarked) [Example 30, 8-Fluoro-2,3,4,5,9,10,11,11a-octahydro-1H,8bH-cyclopenta[b][1,4]diazocino[7,8,1-hi]indole] are 16 nM, 0.036 µM and 90%.
In turn, `Fc1ccc2c3c1C1CCCCC1N3CCNCC2` (centres unmarked) [Example 31, 8-Fluoro-2,3,4,5,8b,9,10,11,12,12a-decahydro-1H[1,4]diazocino[7,8,1-jk]carbazole] gave a Ki in series [1] of 8 nM. Also, in series [2], the EC50 amounted to 0.087 µM and the Emax stood at 60%.
`CN1CCc2ccc(Cl)c3c4c(n(c23)CC1)CCC4` [Example 34, 8-Chloro-3-methyl-2,3,4,5,10,11-hexahydro-1H,9H-cyclopenta[b][1,4]diazocino[7,8,1-hi]indole] registered a Ki in series [1] of 15 nM. In series [2], the EC50 came out at 0.081 µM and the Emax worked out at 40%.
As for `CN1CCc2ccc(Cl)c3c4c(n(c23)CC1)CCCC4` [Example 35, 8-Chloro-3-methyl-2,3,4,5,9,10,11,12-octahydro-1H-[1,4]diazocino[7,8,1-jk]carbazole], affinity in series [1] was put at a Ki of 11 nM. Further, the Emax in series [2] worked out at 50%. In addition, in series [2] (setting [3]), the EC50 was determined as 0.287 µM.
On the same counts, the results for `CN1CCc2ccc(Cl)c3c2N(CC1)C1CCCC31` (centres unmarked) [Example 36, 8-Chloro-3-methyl-2,3,4,5,9,10,11,11a-octahydro-1H,8bH-cyclopenta[b][1,4]diazocino[7,8,1-hi]indole] are 12 nM, 40% and 0.467 µM.
On the same counts, the results for `CN1CCc2ccc(Cl)c3c2N(CC1)C1CCCCC31` (centres unmarked) [Example 37, 8-Chloro-3-methyl-2,3,4,5,8b,9,10,11,12,12a-decahydro-1H-[1,4]diazocino[7,8,1-jk]carbazole] are 11.6 nM, 70% and 0.655 µM.
`Clc1ccc2c3c1c1c(n3CCNCC2)CCC1` [Example 38, 8-Chloro-2,3,4,5,10,11-hexahydro-1H,9H-cyclopenta[b][1,4]diazocino[7,8,1-hi]indole]: the affinity in series [1] corresponds to a Ki of 9.3 nM. Moreover, in series [2], the EC50 stood at 0.087 µM and the Emax amounted to 90%.
On the same counts, the results for `Clc1ccc2c3c1c1c(n3CCNCC2)CCCC1` [Example 39, 8-Chloro-2,3,4,5,9,10,11,12-octahydro-1H-[1,4]diazocino[7,8,1-jk]carbazole] are 2 nM, 0.048 µM and 80%.
On the same counts, the results for `Clc1ccc2c3c1C1CCCC1N3CCNCC2` (centres unmarked) [Example 40, 8-Chloro-2,3,4,5,9,10,11,11a-octahydro-1H,8bH-cyclopenta[b][1,4]diazocino[7,8,1-hi]indole] are 20 nM, 0.081 µM and 80%.
The compound `Clc1ccc2c3c1C1CCCCC1N3CCNCC2` (centres unmarked) [Example 41, 8-Chloro-2,3,4,5,8b,9,10,11,12,12a-decahydro-1H-[1,4]diazocino[7,8,1-jk]carbazole] had a Ki in series [1] of 7.5 nM. In series [2], the EC50 came to 0.091 µM and the maximal effect (Emax) was determined as 90%.

By melting point is commonly meant the temperature of the solid-liquid transition. As a reminder, the Ki is the dissociation constant of the complex between target and ligand, obtained from inhibition or displacement. High values mean weaker binding, low ones tighter binding. A word on the EC50: it is the concentration giving half of the maximal effect. As usually defined, the Emax is the maximal effect, on the per cent scale that the assay sets.
